14 compounds from patent US9365551B2, “2-(benzyloxy) benzamides as LRRK2 kinase inhibitors” (Glaxo Group Limited, priority 2010, dated 2016) can be followed below.

Assay [1] has as its target T1, 6His-Tev-LRRK2 (1326-2527) (Homo sapiens, UniProt Q5S007).
T1 construct: A LRRK2 cDNA encoding residues 1326-2527 was received from Dundee University; made in house; host or cells: Spodoptera frugiperda (Sf9) insect cells, baculovirus (pFB-HTb)
T1 sequence (Q5S007 1326-2527): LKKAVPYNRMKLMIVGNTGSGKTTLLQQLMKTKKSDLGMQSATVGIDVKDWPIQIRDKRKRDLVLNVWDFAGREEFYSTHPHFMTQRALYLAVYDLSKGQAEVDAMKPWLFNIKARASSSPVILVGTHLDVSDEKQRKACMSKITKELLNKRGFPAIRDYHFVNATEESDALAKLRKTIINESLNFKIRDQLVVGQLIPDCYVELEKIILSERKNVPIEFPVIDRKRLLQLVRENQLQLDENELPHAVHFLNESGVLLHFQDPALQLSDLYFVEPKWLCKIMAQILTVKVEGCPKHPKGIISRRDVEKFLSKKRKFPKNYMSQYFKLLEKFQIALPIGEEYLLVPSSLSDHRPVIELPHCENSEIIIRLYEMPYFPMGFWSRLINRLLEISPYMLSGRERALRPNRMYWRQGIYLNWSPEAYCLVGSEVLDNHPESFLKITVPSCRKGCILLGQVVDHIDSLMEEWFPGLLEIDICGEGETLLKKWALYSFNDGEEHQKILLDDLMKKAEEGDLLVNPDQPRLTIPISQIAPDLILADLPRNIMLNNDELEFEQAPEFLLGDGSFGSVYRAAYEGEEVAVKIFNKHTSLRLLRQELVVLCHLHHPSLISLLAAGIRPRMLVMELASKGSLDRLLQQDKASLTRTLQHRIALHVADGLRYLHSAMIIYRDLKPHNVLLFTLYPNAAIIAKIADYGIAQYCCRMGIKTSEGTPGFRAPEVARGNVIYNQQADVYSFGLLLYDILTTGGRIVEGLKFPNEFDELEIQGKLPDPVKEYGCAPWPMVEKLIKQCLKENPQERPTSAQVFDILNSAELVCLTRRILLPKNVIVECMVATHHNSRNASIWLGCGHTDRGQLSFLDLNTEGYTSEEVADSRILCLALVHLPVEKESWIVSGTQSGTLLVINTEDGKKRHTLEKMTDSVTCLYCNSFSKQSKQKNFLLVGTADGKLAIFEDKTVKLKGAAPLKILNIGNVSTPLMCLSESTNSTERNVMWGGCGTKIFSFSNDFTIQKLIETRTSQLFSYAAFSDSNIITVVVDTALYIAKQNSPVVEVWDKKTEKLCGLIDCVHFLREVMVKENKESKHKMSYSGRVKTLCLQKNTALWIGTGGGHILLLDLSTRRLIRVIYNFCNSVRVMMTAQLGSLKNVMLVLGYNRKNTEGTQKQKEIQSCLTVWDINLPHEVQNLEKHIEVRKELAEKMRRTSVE
Kind of assay: LRRK2 peptide substrate assay. It counts as biochemical. The conditions noted are these: mean pIC50 of multiple test results. Here is the method: (§1) Compounds of formula (I) may be tested for in vitro kinase activity in accordance with the following assays, using the non natural, in vitro, substrates moesin and the Longer Biotin-LRRKtide. Moesin and a shorter version of the peptide were identified as substrates in Jaleel et al. (2007, Biochem J, 405: 307-317).
LRRK2 Peptide Substrate Assay
a) 100 nl of a 1:4 serial dilution of test compound with a top final assay concentration of 30 μM is added to certain wells in a low volume 384 well black plate. 100 nl of DMSO is used in certain wells as controls.
(§2) b) 3 μl enzyme solution (80 nM purified recombinant 6His-Tev-LRRK2 (1326-2527) in assay buffer: 50 mM Hepes (pH 7.2), 10 mM MgCl2, 150 mM NaCl, 5% glycerol, 0.0025% triton X-100 and 1 mM DTT) is added to certain wells. 3 μl assay buffer is added to certain wells as a 100% inhibition (no enzyme) control. c) After incubation at room temperature for 30 minutes, 3 μl substrate solution (2 μM Biotin-LRRKtide peptide substrate and ATP at Km in assay buffer) is added to each well. Plates are then incubated for a further 1-2 hours at room temperature (incubation time varies depending upon rate and linearity of reaction with differing enzyme batches). d) 6 μl detection solution (50 nM Streptavidin SureLight® APC (PerkinElmer), 4 nM Eu-W1024 labelled anti-rabbit IgG antibody (PerkinElmer), 1:500 dilution (dilution determined on a batch to batch basis) of Phospho-Ezrin (Thr567)/Radixin (Thr564)/Moesin (Thr558) Polyclonal Antibody (New England Biolabs) and 60 mM EDTA in buffer: 40 mM Hepes (pH 7.2), 150 mM NaCl, 0.03% BSA) is added to each well. Plates are then incubated for a further 2 hours at room temperature before reading on a suitable plate reader (Excitation 330 nm, emission 620 nm (Eu) and 665 nm (APC)). Data is analysed using ActivityBase software (IDBS). LRRK2 AlphaScreen Desensitised Protein Substrate Assay a) 100 nl of a 1:4 serial dilution of test compound with a top final assay concentration of 30 μM is added to certain wells in a low volume 384 well black plate. 100 nl of DMSO is used in certain wells as controls. b) 3 μl enzyme solution (80 nM purified recombinant 6His-Tev-LRRK2 (1326-2527) in assay buffer: 50 mM Hepes (pH 7.2), 10 mM MgCl2, 150 mM NaCl, 5% glycerol, 0.0025% triton X-100 and 1 mM DTT) is added to certain wells. 3 μl assay buffer is added to certain wells as a 100% inhibition (no enzyme) control. c) After incubation at room temperature for 30 minutes, 3 μl substrate solution (200 nM GST-PS-Moesin (400-577) and 2 mM ATP in assay buffer) is added to each well. Plates are then incubated for 20 minutes at room temperature. d) 6 μl detection solution (1:250 dilution of AlphaLisa Protein A Acceptor beads (PerkinElmer), 1:64 dilution of AlphaLisa Gluthathione Donor beads (PerkinElmer) and 1:600 dilution (dilution determined on a batch to batch basis) of Phospho-Ezrin (Thr567)/Radixin (Thr564)/Moesin (Thr558) Polyclonal Antibody (New England Biolabs) in a buffer: 50 mM Hepes (pH 7.5), 250 mM NaCl, 60 mM EDTA, 1% PEG and 0.01% Brij 35) is added to each well. Plates are then incubated for a further 2 hours at room temperature in the dark before reading on an EnVision™ plate reader with AlphaScreen HTS turbo option module and AlphaScreen settings. Data is analysed using ActivityBase software (IDBS). Pharmacological Data

For assay [2], the target named is T1, 6His-Tev-LRRK2 (1326-2527). Kind of assay: LRRK2 AlphaScreen desensitised protein substrate assay. It counts as biochemical. The conditions noted are these: mean pIC50 of multiple test results. The procedure: as §1, §2
In general terms: Alpha assays give light when donor and acceptor beads are brought close together.

Setting [3] is: stated as threshold, read-out: pIC50 in the LRRK2 peptide substrate assay (bounds) (converted).
The mark [4] stands for this setting: stated as threshold, read-out: pIC50 in the LRRK2 alphascreen desensitised protein substrate assay (bounds) (converted).
Setting [5] is: Biotin-LRRKtide peptide substrate, ATP at Km, read-out: LRRK2 peptide substrate assay (pIC50) (converted).
Where [6] appears, read: GST-PS-Moesin (400-577) substrate, 2 mM ATP, read-out: LRRK2 alphascreen desensitized protein substrate assay (pIC50) (converted).

On to `O=C(Nc1ccnnc1)c1cc(C(F)(F)F)c(CN2CCOCC2)cc1OCc1ccccc1` [Example 34, 4-(4-Morpholinylmethyl)-2-[(phenylmethyl)oxy]-N-4-pyridazinyl-5-(trifluoromethyl)benzamide], for which the values for the IC50 in assay [1] (setting [3]) and in assay [2] (setting [4]) were at most 1260 nM and at most 25100 nM, respectively.
As to `O=C(Nc1cccnc1)c1cc(C(F)(F)F)c(CN2CCCCC2)cc1OCc1ccccc1` [Example 35, 2-[(Phenylmethyl)oxy]-4-(1-piperidinylmethyl)-N-3-pyridinyl-5-(trifluoromethyl)benzamide], the IC50 in assay [1] (setting [3]) is at most 1260 nM; in assay [2] (setting [4]), at most 25100 nM.
In the case of `O=C(Nc1ccnnc1)c1cc(C(F)(F)F)c(CN2CCCCC2)cc1OCc1ccccc1` [Example 36, 2-[(Phenylmethyl)oxy]-4-(1-piperidinylmethyl)-N-4-pyridazinyl-5-(trifluoromethyl)benzamide], the IC50 in assay [1] (setting [3]) is at most 1260 nM; in assay [2] (setting [4]), at most 25100 nM.
`O=C(Nc1cccnc1)c1cc(C(F)(F)F)c(C(=O)N2CCOCC2)cc1OCc1ccccc1` [Example 37, 4-(4-Morpholinylcarbonyl)-2-[(phenylmethyl)oxy]-N-3-pyridinyl-5-(trifluoromethyl)benzamide]: the IC50 in assay [1] (setting [5]) is 39.8 nM; in assay [1] (setting [3]), at most 100 nM; in assay [2] (setting [6]), 794 nM; in assay [2] (setting [4]), at most 25100 nM.
For `O=C(Nc1ccnnc1)c1cc(C(F)(F)F)c(C(=O)N2CCOCC2)cc1OCc1ccccc1` [Example 38, 4-(4-Morpholinylcarbonyl)-2-[(phenylmethyl)oxy]-N-4-pyridazinyl-5-(trifluoromethyl)benzamide], the values for the IC50 in assay [1] (setting [3]) and in assay [2] (setting [4]) were at most 1260 nM and at most 25100 nM, respectively.
Regarding `O=C(Nc1cccnc1)c1cc(C(F)(F)F)c(C(=O)N2CCCCC2)cc1OCc1ccccc1` [Example 39, 2-[(Phenylmethyl)oxy]-4-(1-piperidinylcarbonyl)-N-3-pyridinyl-5-(trifluoromethyl)benzamide], the IC50 in assay [1] (setting [5]) is 15.8 nM; in assay [1] (setting [3]), at most 100 nM; in assay [2] (setting [6]), 316 nM; in assay [2] (setting [4]), at most 316 nM.
As for `O=C(Nc1ccnnc1)c1cc(C(F)(F)F)c(C(=O)N2CCCCC2)cc1OCc1ccccc1` [Example 40, 2-[(Phenylmethyl)oxy]-4-(1-piperidinylcarbonyl)-N-4-pyridazinyl-5-(trifluoromethyl)benzamide], the IC50 was at most 1260 nM in assay [1] (setting [3]) and at most 25100 nM in assay [2] (setting [4]).
On to `O=C(Nc1cccnc1)c1cc(Cl)c(C(=O)N2CCC(F)(F)C2)cc1OCc1ccccc1` [Example 41, 5-Chloro-4-[(3,3-difluoro-1-pyrrolidinyl)carbonyl]-2-[(phenylmethyl)oxy]-N-3-pyridinylbenzamide], for which the IC50 in assay [1] (setting [3]) is at most 100 nM; in assay [2] (setting [4]), at most 316 nM.
`O=C(Nc1ccnnc1)c1cc(Cl)c(C(=O)N2CCC(F)(F)C2)cc1OCc1ccccc1` [Example 42, 5-Chloro-4-[(3,3-difluoro-1-pyrrolidinyl)carbonyl]-2-[(phenylmethyl)oxy]-N-4-pyridazinylbenzamide]: the IC50 in assay [1] (setting [5]) is 50.1 nM; in assay [1] (setting [3]), at most 100 nM; in assay [2] (setting [6]), 501 nM; in assay [2] (setting [4]), at most 25100 nM.
For `Cc1nocc1NC(=O)c1cc(Cl)c(C(=O)N2CCC(F)(F)C2)cc1OCc1ccccc1` [Example 43, 5-Chloro-4-[(3,3-difluoro-1-pyrrolidinyl)carbonyl]-N-(3-methyl-4-isoxazolyl)-2-[(phenylmethyl)oxy]benzamide], the figures for the IC50 in assay [1] (setting [3]) and in assay [2] (setting [4]) were at most 100 nM and at most 25100 nM, respectively.
On to `O=C(Nc1cccnc1)c1cc(Cl)c(C(=O)N2CCOCC2)cc1OCc1ccccc1` [Example 44, 5-Chloro-4-(4-morpholinylcarbonyl)-2-[(phenylmethyl)oxy]-N-3-pyridinylbenzamide], for which the IC50 in assay [1] (setting [5]) was 31.6 nM; in assay [1] (setting [3]), at most 100 nM; in assay [2] (setting [6]), 158 nM; in assay [2] (setting [4]), at most 316 nM.
Regarding `O=C(Nc1cccc(Cl)c1)c1cc(Cl)c(C(=O)N2CCOCC2)cc1OCc1ccccc1` [Example 45, 5-Chloro-N-(3-chlorophenyl)-4-(4-morpholinylcarbonyl)-2-[(phenylmethyl)oxy]benzamide], the values for the IC50 in assay [1] (setting [3]) and in assay [2] (setting [4]) were at most 10 nM and at most 316 nM, respectively.
Turning to `O=C(Nc1ccnnc1)c1cc(Cl)c(C(=O)N2CCOCC2)cc1OCc1ccccc1` [Example 46, 5-Chloro-4-(4-morpholinylcarbonyl)-2-[(phenylmethyl)oxy]-N-4-pyridazinylbenzamide], the IC50 in assay [1] (setting [3]) is at most 100 nM; in assay [2] (setting [4]), at most 25100 nM.
Regarding `Cn1cc(-c2cc(C(=O)Nc3cccc(F)c3)c(OCc3ccc(F)cc3)cc2C(=O)N2CCOCC2)cn1` [Example 47, 2-((4-fluorobenzyl)oxy)-N-(3-fluorophenyl)-5-(1-methyl-1H-pyrazol-4-yl)-4-(morpholine-4-carbonyl)benzamide], the IC50 is 10 nM in assay [1] (setting [5]), at most 10 nM in assay [1] (setting [3]), 126 nM in assay [2] (setting [6]) and at most 316 nM in assay [2] (setting [4]).
